# In PubChem BioAssay AID1963425 (Molecular Pharmacology Branch, DTP, NCI, 2024):
# Where “and” joins values, the source holds several entries; their conditions need not be identical. Equal values may be shown once.
# Test system: 323965-272-R-J2-PDC complex spheroid growth, % test/control
# Assay: Anticancer human tumor 323965-272-R-J2-PDC patient-derived pancreatic carcinoma cell line growth inhibition [Asc]
# Conditions: for viability, T/C: stronger effect = lower value
# Protocol: Multicellular complex tumor spheroid response to apoptosis pathway targeting inhibitors Alrizomadlin, Pelcitoclax, and Dasminapant in combination with a variety of drugs and investigational agents in selected tumor cell lines
# The MDM2 inhibitor alrizomadlin, the Bcl-2/Bcl-xL inhibitor pelcitoclax, and the IAPs inhibitor dasminapant were evaluated both individually and in combination with standard of care and investigational anticancer small molecules within a complex spheroid model of solid tumors. . Complex spheroids include a stromal component modeled by human endothelial cells (HUVEC) and fibroblasts modeled by human mesenchymal stem cells (MSCs). The concentration ranges selected for each drug and investigational agent were based upon clinically achievable concentrations if the clinical Cmax of the agent was known.
# Compounds. The drugs and investigational agents: alrizomadlin (APG-115; NSC831270), pelcitoclax (APG-1252; NSC835773), dasminapant (APG-1387;NSC834197), TAK-243 (NSC785004), copanlisib (NSC809693), olaparib (NSC753686), talazoparib (NSC767125), cobimetinib (NSC 768068), eltanexor (KPT-8602, NSC 794443), abemaciclib (NSC 768073), sotorasib (NSC818433), adagrasib (NSC 831453), MRTX-1133 (NSC 836407), Iadademestat (ORY1001, NSC 806812), and RMC-4630 (NSC839698), were obtained from the NCI Developmental Therapeutics Program Chemical Repository. The FDA-approved anticancer drug set is available from the Developmental Therapeutics Program at https://dtp.cancer.gov/organization/dscb/obtaining/available plates.htm. […] The stock solutions were prepared in dimethyl sulfoxide (DMSO, Sigma-Aldrich, St. Louis, MO, cat. D2650) at 800-fold the tested concentration and stored at -70 degrees C prior to their use. All drugs and investigational agents were tested over a range starting from a high concentration at or near the clinical Cmax and decreasing in half-log increments. If the clinical Cmax for an agent had not been determined, the highest concentration tested was 10 microM.
# The patient-derived cancer (PDC) cell lines include five colon adenocarcinomas: 186277-243-T-J2-PDC, 616215-338-R-J1-PDC, 439559-082-T-J2-PDC, 463943-066-T-J2-PDC, and 519858-162-T-J1-PDC; three pancreatic carcinomas: 323965-272-R-J2-PDC, 521955-158-R6-J3-PDC, and 521955-158-R2-J5-PDC; two uterine sarcomas: 327498-152-R-J2-PDC and 993429-296-R-J1-PDC; two rhabdomyosarcomas: 755483-174-R-J1-PDC and 772245-204-R-J1-PDC; two soft tissue sarcomas: 126254-015-R-J1-PDC and 494315-158-R-J1-PDC; two malignant fibrous histiocytomas: 317291-083-R-J1-PDC and 596521-263-R-J1-PDC; two breast carcinomas: 171881-019-R-J1-PDC and 885512-296-R-J2-PDC; and one ovarian carcinoma: 6556581-035-R-J-PDC were obtained from the NCI PDMR, (https://pdmr.cancer.gov). The established cell lines HSSY-2 synovial sarcoma (RRID:CVCL 8719), SYO-1 synovial sarcoma (RRID:CVCL_7146), MPNST malignant peripheral neural sheath tumor were obtained from the Sloan Kettering Institute. The following established cell lines were purchased from the American Type Culture Collection (ATCC, Manassas, VA), Sor the received from the NCI repository:, PANC-1 pancreatic carcinoma (CRL-1469, RRID:CVCL_0480), OVCAR-5 ovarian carcinoma (RRID:CVCL_1628), OVCAR-8 ovarian carcinoma (RRID:CVCL_1629), , MCF-7 breast carcinoma (CRL-12584, RRID:CVCL_0031), MDA-MB-231 breast carcinoma (CRL-12532, RRID:CVCL_0062), NCI-H1876 small cell lung carcinoma (CRL-5902, RRID:CVCL_1503), NCI-H510A small cell lung carcinoma (HTB-184, RRID:CVCL_1565), NCI-H1417 (CRL-5869, RRID:CVCL_1469), and NCI-H196 small cell lung carcinoma (CRL-5823, RRID:CVCL_1509). Dr. Peter Houghton (Greehey Children's Cancer Research Institute, University of Texas Health Science Center, San Antonio, TX) provided Rh-18 rhabdomyosarcoma (RRID:CVCL_1659). Pooled donor human umbilical vein endothelial cells (HUVEC, Lonza, cat. CC-2519) and human mesenchymal stem cells (hMSC, Lonza, cat. PT-2501) were purchased from Lonza (Walkersville, MD).
# Cell Culture. […]
# [1] = compound alone, run of 11/07/2022
# 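Also: compound exposure lasted 7 days starting three days after spheroid seeding.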
# 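For viability, T/C in this document: 100% = DMSO vehicle control wells with viability set relative to vehicle.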
IC50 (curve of compound),Structure (SMILES),"viability, T/C (compound 0.0316 µM)","viability, T/C (compound 0.1 µM)","viability, T/C (compound 0.316 µM)","viability, T/C (compound 1 µM)","viability, T/C (compound 3.16 µM)","viability, T/C (compound 0.00316 µM)","viability, T/C (compound 0.01 µM)",other results
> 10000 nM,C#Cc1c(F)ccc2cc(O)cc(-c3ncc4c(N5CC6CCC(C5)N6)nc(OCC56CCCN5CC(F)C6)nc4c3F)c12 (stereo not given),105% and 94.4% and 104%,106% and 91.6% and 102%,103% and 107% and 98.3%,87.3% and 97.4% and 111%,67.9% and 75.1% and 76.7%,,,"viability, T/C (compound 10 µM): 62.3% and 59.4% and 62.5%"
> 10000 nM,C=CC(=O)N1CCN(c2nc(=O)n(-c3c(C)ccnc3C(C)C)c3nc(-c4c(O)cccc4F)c(F)cc23)C(C)C1 (stereo not given),68.7% and 71.9% and 67.7%,56.3% and 59.3% and 71.6%,58.4% and 59% and 65.9%,57% and 64.3% and 67.5%,66.4% and 72.1% and 67.5%,,,"viability, T/C (compound 10 µM): 64.8% and 65.6% and 61.1%"
> 1000 nM,CCN1CCN(Cc2ccc(Nc3ncc(F)c(-c4cc(F)c5nc(C)n(C(C)C)c5c4)n3)nc2)CC1,91.6% and 94.6% and 76.7%,75.6% and 84.4% and 76.1%,65.8% and 71.8% and 68%,67.9% and 74.1% and 82.3%,,114% and 101% and 112%,109% and 98.9% and 112%,
> 1000 nM,CNC(C)C(=O)NC1CN(S(=O)(=O)c2cccc(S(=O)(=O)N3CCC4CCC(C(=O)NC(c5ccccc5)c5ccccc5)N4C(=O)C(NC(=O)C(C)NC)C3)c2)CCC2CCC(C(=O)NC(c3ccccc3)c3ccccc3)N2C1=O (stereo not given),,106% [middle of 9 runs],100% [middle of 9 runs],,,,109% [middle of 9 runs],"IC50 (compound alone, run of 11/15/2022): > 1000 nM"
> 100 nM,Cn1ncnc1[C@H]1c2n[nH]c(=O)c3cc(F)cc(c23)N[C@@H]1c1ccc(F)cc1,103% and 95.3% and 106%,89.7% and 95.6% and 94.9%,,,,103% and 104% and 99.2%,96.4% (2×) and 120%,"viability, T/C (compound 0.000316 µM): 103% and 109% and 106%; viability, T/C (compound 0.001 µM): 96.5% and 103% and 99.3%"
> 100 nM,NC1CCC(NC2CC2c2ccccc2)CC1 (stereo not given),120% and 103% and 94%,110% and 90.2% and 92.5%,,,,102% and 98.4% and 89.8%,101% and 97.8% and 90.7%,"viability, T/C (compound 0.000316 µM): 97.5% and 97% and 94.2%; viability, T/C (compound 0.001 µM): 105% and 97.8% and 90%"
> 10000 nM,O=C(c1cc(Cc2n[nH]c(=O)c3ccccc23)ccc1F)N1CCN(C(=O)C2CC2)CC1,105% and 66.7% and 98.1%,86.6% and 102% and 89.1%,101% and 116% and 79%,104% and 108% and 117%,98.2% and 110% and 94.2%,,,"viability, T/C (compound 10 µM): 87.7% and 91.1% and 80.9%"

# More lines, now with the values behind:
Structure (SMILES),IC50 (curve of compound),"viability, T/C (compound 0.0316 µM)","viability, T/C (compound 0.1 µM)","viability, T/C (compound 0.316 µM)","viability, T/C (compound 1 µM)","viability, T/C (compound 3.16 µM)","viability, T/C (compound 0.00316 µM)","viability, T/C (compound 0.01 µM)",other results
C=C(F)C(=O)N1CCN(c2nc(OCC3CCCN3C)nc3c2CCN(c2cccc4cccc(Cl)c24)C3)CC1CC#N (stereo not given),3550 nM and 4840 nM and 5670 nM,56.9% and 67.8% and 73.2%,51.6% and 58.2% and 53.8%,47.7% and 60% and 57.1%,59% and 70.1% and 72.8%,61.5% and 76.8% and 82.5%,,,
CCN1C(C(=O)NC23CCC(C(=O)O)(CC2)CC3)C(c2cccc(Cl)c2F)C2(C(=O)Nc3cc(Cl)ccc32)C12CCCCC2 (stereo not given),> 3000 nM,,,,,,,,"viability, T/C (compound 0.00949 µM): 109% [middle of 9 runs]; viability, T/C (compound 0.03 µM): 105% [middle of 9 runs]; viability, T/C (compound 0.0949 µM): 104% [middle of 9 runs]; viability, T/C (compound 0.3 µM): 101% [middle of 9 runs]; viability, T/C (compound 0.949 µM): 110% [middle of 9 runs]; viability, T/C (compound 3 µM): 101% [middle of 9 runs]; IC50 [1]: > 3000 nM"
COc1c(OCCCN2CCOCC2)ccc2c3n(c(=NC(=O)c4cnc(N)nc4)nc12)CCN3,154 nM and 119 nM and 92.1 nM,79.6% and 65.5% and 71.6%,49.5% and 56.1% and 55.9%,32.8% and 41.2% and 33.7%,30.5% and 33.6% and 25.3%,,100% and 85.6% and 103%,99.3% and 80.7% and 93%,
Cc1c(S(C)(=O)=O)c(-c2cc(F)cc(N3CCN(c4ccc(NS(=O)(=O)c5ccc(NC(CCN6CCC(C(=O)OCCCP(=O)(O)O)CC6)CSc6ccccc6)c(S(=O)(=O)C(F)(F)F)c5)cc4)CC3)c2)c(-c2ccc(Cl)cc2)n1C(C)C (stereo not given),,107% [middle of 7 runs],107% [middle of 7 runs],98.3% [middle of 7 runs],,84.5% [middle of 7 runs],,,"viability, T/C (compound 10 µM): 76.9% [middle of 7 runs]; IC50 [1]: > 10000 nM"
Cc1nc(N2CCC3(CC2)COC(C)C3N)c(CO)nc1Sc1ccnc(N)c1Cl (stereo not given),2620 nM and 1920 nM and 2500 nM,,,,,,,,"viability, T/C (compound 0.00949 µM): 102% and 96% and 110%; viability, T/C (compound 0.03 µM): 83.6% and 82.4% and 93.1%; viability, T/C (compound 0.0949 µM): 78.5% and 71.7% and 79.6%; viability, T/C (compound 0.3 µM): 63.5% and 73.1% and 66%; viability, T/C (compound 0.949 µM): 54.4% (2×) and 55%; viability, T/C (compound 3 µM): 50.1% and 45.6% and 49.1%"
NC(=O)C(=Cn1cnc(-c2cc(C(F)(F)F)cc(C(F)(F)F)c2)n1)c1cncnc1,> 300 nM,,,,,,,,"viability, T/C (compound 0.000949 µM): 105% and 108% and 73.8%; viability, T/C (compound 0.003 µM): 91.3% and 106% and 96.3%; viability, T/C (compound 0.00949 µM): 101% and 105% and 88.4%; viability, T/C (compound 0.03 µM): 93.7% and 89% and 82.1%; viability, T/C (compound 0.0949 µM): 86.4% and 80.2% and 77.3%; viability, T/C (compound 0.3 µM): 57.8% and 57% and 75.2%"
O=C(c1ccc(F)c(F)c1Nc1ccc(I)cc1F)N1CC(O)([C@@H]2CCCCN2)C1,176 nM and 149 nM and 123 nM,87% and 76.1% and 79%,62.9% and 59.7% and 52.5%,34.9% and 34.5% and 31.9%,19.6% and 20.1% and 18.8%,,106% and 101% and 88.5%,82.5% and 96.7% and 83.5%,
